Patent US8227422B2, “Peptides and compounds that bind to a receptor” (Glaxosmithkline LLC, priority 1996, dated 2012)
“And” between values parts separate entries of the source, which are not always exact repeats. Identical values can stand only once. Where a SMILES comes first, the peptide text is derived from it.

Assays:
[1] = tested on: marrow cells (Mk precursor cell population); assay: Mouse marrow cells in semi-solid medium (methylcellulose), colonies of large cells; format: cell-based; settings: 1 nM TPO; 7 days in methylcellulose; replicates #1-1 to #2-2
Protocol: To assess the feasibility of mice as a convenient test species, several in vitro experiments, designed to measure the activity of the test compounds on the mouse receptor, have been done. First, marrow cells, harvested from the femurs of 8 to 9 week one Balb/C mice, were incubated for 7 days in liquid culture with either rhuTPO or various concentrations of the test peptides. At the end of the incubation period, the cultures were concentrated by Cytospin, stained for acetylcholinesterase (AChE, a diagnostic of mouse megakaryocytes), and counted by microscopic analysis. One (X) nM rhuTPO gave rise to the outgrowth of very large (>40 um) non-adherent cells that stain for AChE. These cells appear to be mature megakaryocytes. From an initial seeding of 10^6 total marrow cells/ml (in 50 ml cultures) an estimated 1 to 2×10^6 megakaryocytes developed. This responce to TPO was designated as “maximal”. Control cultures containing no added growth factors produced very few AChE-positive cells. […] In a second experiment, marrow cells were harvested and cultured in semi-solid medium (methylcellulose) containing either no factors, 1 nM rhuTPO, or 10 uM Peptide A. After 7 days in culture, colonies of large cell (presumed to be megakaryocytes) were counted and grouped into small colonies (3-5 cells) or large colonies (greater than 6 cells). […]

[2] = tested on: marrow cells of Balb/C mice (mouse receptor); assay: Mouse marrow cells in liquid culture, AChE-positive megakaryocyte outgrowth; format: cell-based; settings: for Response (AChE-positive megakaryocytes): 7 days liquid culture
Protocol: To assess the feasibility of mice as a convenient test species, several in vitro experiments, designed to measure the activity of the test compounds on the mouse receptor, have been done. First, marrow cells, harvested from the femurs of 8 to 9 week one Balb/C mice, were incubated for 7 days in liquid culture with either rhuTPO or various concentrations of the test peptides. At the end of the incubation period, the cultures were concentrated by Cytospin, stained for acetylcholinesterase (AChE, a diagnostic of mouse megakaryocytes), and counted by microscopic analysis. One (X) nM rhuTPO gave rise to the outgrowth of very large (>40 um) non-adherent cells that stain for AChE. These cells appear to be mature megakaryocytes. From an initial seeding of 10^6 total marrow cells/ml (in 50 ml cultures) an estimated 1 to 2×10^6 megakaryocytes developed. This responce to TPO was designated as “maximal”. Control cultures containing no added growth factors produced very few AChE-positive cells. […] This finding was the first evidence that this peptide family is active on the murine receptor. In a second experiment, marrow cells were harvested and cultured in semi-solid medium (methylcellulose) containing either no factors, 1 nM rhuTPO, or 10 uM Peptide A. After 7 days in culture, colonies of large cell (presumed to be megakaryocytes) were counted and grouped into small colonies (3-5 cells) or large colonies (greater than 6 cells). TPO and the test peptides both produced substantially more colonies of both sized than did the negative control cultures.

[3] = biological target: T1, TPO-R (Homo sapiens, UniProt P40238); assay: Competition binding assay (equilibrium binding ELISA, MBP-TPO156 tracer) on immobilized TPO-R; settings: Table 4, cyclized compounds; read-out: IC50
T1 construct: made in house
T1 sequence (P40238 26-491 limits assumed): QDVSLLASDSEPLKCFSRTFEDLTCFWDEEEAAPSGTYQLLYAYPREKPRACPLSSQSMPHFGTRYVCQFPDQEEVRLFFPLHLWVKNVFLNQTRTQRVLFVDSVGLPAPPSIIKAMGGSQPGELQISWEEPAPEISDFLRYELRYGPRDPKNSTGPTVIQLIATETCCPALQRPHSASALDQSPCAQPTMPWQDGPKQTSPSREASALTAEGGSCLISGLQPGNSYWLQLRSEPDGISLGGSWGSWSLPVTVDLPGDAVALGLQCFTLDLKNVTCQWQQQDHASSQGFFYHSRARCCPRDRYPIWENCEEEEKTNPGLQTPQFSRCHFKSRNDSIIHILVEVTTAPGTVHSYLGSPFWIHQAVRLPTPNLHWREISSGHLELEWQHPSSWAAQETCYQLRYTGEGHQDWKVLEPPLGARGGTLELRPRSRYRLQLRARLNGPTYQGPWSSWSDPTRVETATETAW
Protocol: A variety of methods can be used to evaluate IC50 values. For example, an equilibrium binding ELISA assay, using either MBP-TPO or lacI-peptide tracer, was used to determine whether the peptides inhibit the binding of TPO to the extracellular domain of the TPO receptor. Typically, the IC50 value were determined using the free peptide. The IC50 value can be determined using the free peptide, which optionally can be C-terminally amidated, or can be prepared as an ester or other carboxy amide.
Binding affinities of chemically synthesized peptides for TPO-R were measured in a competition binding assay. The wells of a microtiter plate were coated with 1 mg streptavidin, blocked with PBS/1% BSA, followed by 50 ng of biotinylated anti-receptor immobilizing antibody (Ab179). The wells were then treated with a 1:10 dilution of soluble TPO-R harvest. Various concentrations of peptide or peptide mimetic were mixed with a constant amount of a truncated form of TPO consisting of residues 1-156 fused to the C-terminus of maltose binding protein (MBP-TPO156). The peptide MBP-TPO156 mixtures were added to the TPO-R coated wells, incubated for 2 hours at 4° C. and then washed with PBS. The amount of MBP-TPO156 that was bound at equilibrium was measured by adding a rabbit anti-sera directed against MBP, followed by alkaline phosphatase conjugated goat anti-rabbit IgG. The amount of alkaline phosphatase in each well was then determined using standard methods.
The assay is conducted over a range of peptide concentrations and the results are graphed such that the y axis represents the amount of bound MBP-TPO156 and the x axis represents the concentration of peptide or peptide mimetic.

[4] = biological target: T2, TPO receptor (Homo sapiens, UniProt P40238); assay: Microphysiometer assay: rate of acidification of extracellular medium on TPO receptor stimulation; format: cell-based; settings: Table 4, cyclized compounds; microphysiometer; read-out: EC50 (nM) Microonys
T2 sequence (P40238 26-635): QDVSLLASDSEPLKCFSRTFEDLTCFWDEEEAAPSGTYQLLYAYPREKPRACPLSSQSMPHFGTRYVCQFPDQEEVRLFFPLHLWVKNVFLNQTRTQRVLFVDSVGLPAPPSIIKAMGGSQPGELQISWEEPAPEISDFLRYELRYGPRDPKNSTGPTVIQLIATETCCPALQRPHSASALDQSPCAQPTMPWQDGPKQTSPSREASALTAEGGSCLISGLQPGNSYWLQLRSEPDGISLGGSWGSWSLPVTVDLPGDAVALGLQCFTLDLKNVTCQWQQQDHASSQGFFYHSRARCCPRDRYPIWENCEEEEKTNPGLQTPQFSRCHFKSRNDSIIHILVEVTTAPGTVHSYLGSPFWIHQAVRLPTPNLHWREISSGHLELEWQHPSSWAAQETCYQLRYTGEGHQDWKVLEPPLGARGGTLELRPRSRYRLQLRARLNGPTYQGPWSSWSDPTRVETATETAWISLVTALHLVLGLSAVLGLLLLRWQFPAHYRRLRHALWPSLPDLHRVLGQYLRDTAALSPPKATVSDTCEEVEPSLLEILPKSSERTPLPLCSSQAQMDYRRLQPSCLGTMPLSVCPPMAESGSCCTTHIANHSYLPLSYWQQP
Protocol: In this example cyclized compounds were subjected to three assays. […] Finally, a microphysiometer (Molecular Devices Corp.) assay was performed. […] The ranges for EC50 are symbolically indicated as for IC50 described above.

[5] = biological target: T3, human TPO-R (transfected Ba/F3 cells) (Homo sapiens, UniProt P40238); assay: Thrombopoietin dependent cell proliferation assay (MTT), TPO-R transfected Ba/F3 cells; format: cell-based; settings: Table 4, cyclized compounds; read-out: EC50 (nM) Proliferation
T3 construct: Murine IL-3 dependent Ba/F3 cells were transfected with full length human TPO-R; expressed in transfected cells; host or cells: murine Ba/F3 cells
T3 sequence (P40238 26-635): T2 sequence (P40238 26-635)
Protocol: Bioactivity of the peptides can be measured using a thrombopoietin dependent cell proliferation assay. Murine IL-3 dependent Ba/F3 cells were transfected with full length human TPO-R. In the absence of IL-3 (WEHI-3 conditioned media), these cells are dependent on TPO for proliferation.
The cells were grown in complete RPMI-10 media, containing 10% WEHI-3 conditioned media, then washed twice in PBS, resuspended in media which lacked WEHI-3 conditioned media, and added to wells containing dilutions of peptide or TPO at 2×10^4 cells/well. The cells were incubated for 48 hours at 37° C. in a humidified 5% CO2 atmosphere and metabolic activity was assayed by the reduction of MTT to formazan, with absorbance at 570 nm measured on an ELISA plate reader.

Compound	IC50 [3] [µM]	EC50 [4] [nM]	EC50 [5] [nM]	colonies of 3–5 large cells [1]	colonies of 6–12 large cells [1]	Response (AChE-positive megakaryocytes) ([2]; 1 nM)	megakaryocytes developed ([2]; One (X) nM rhuTPO, initial seeding 10^6 total marrow cells/ml (50 ml cultures), 7 days)	Response (AChE-positive megakaryocytes) ([2]; 1000 nM (putative 1:4 complex), maximal = 25–30% AChE staining cells)
TPO: recombinant human TPO (thrombopoietin)				15 and 12 and 16 and 13	6 and 1 and 8 and 3	“maximal”	1 to 2×10^6 megakaryocytes	
CC[C@H](C)[C@@H]1NC(=O)[C@H](Cc2c[nH]c3ccccc23)NC(=O)[C@H](CCC(=O)O)NC(=O)[C@H](CCCNC(=N)N)NC(=O)[C@H](CC(C)C)NC(=O)[C@H]([C@@H](C)O)NC(=O)[C@@H]2CCCN2C(=O)CNC(=O)[C@H](CC(=O)O)NC(=O)[C@H](C)NC(=O)[C@@H](N)CCSSCC[C@@H](C(N)=O)NC(=O)[C@H](Cc2ccccc2)NC(=O)[C@H](CO)NC1=O (HELM PEPTIDE1{[N[C@@H](CCS[*:3])C(=O)[*:2]].A.D.G.P.T.L.R.E.W.I.S.F.[O=C([C@H](CCS[*:3])N[*:1])[*:2]].[am]}$PEPTIDE1,PEPTIDE1,1:R3-14:R3$$$V2.0)	≤ 0.5	< 200000	< 200000					
S.A. alone: streptavidin alone [reference compound]								none
CC[C@H](C)[C@@H]1NC(=O)[C@H](Cc2c[nH]c3ccccc23)NC(=O)[C@H](CCC(=O)O)NC(=O)[C@H](CCCNC(=N)N)NC(=O)[C@H](CC(C)C)NC(=O)[C@H]([C@@H](C)O)NC(=O)[C@@H]2CCCN2C(=O)CNC(=O)[C@H](CC(=O)O)NC(=O)[C@H](C)NC(=O)C(c2ccccc2)SC[C@@H](C(N)=O)NC(=O)[C@H](Cc2ccccc2)NC(=O)[C@H](CO)NC1=O (some centres unmarked) (HELM PEPTIDE1{A.D.G.P.T.L.R.E.W.I.S.F.C.[am]}|CHEM1{[O=C(C(c1ccccc1)[*:2])[*:1]]}$PEPTIDE1,CHEM1,1:R1-1:R1|PEPTIDE1,CHEM1,13:R3-1:R2$$$V2.0)	≤ 0.5	< 200000	< 500					

Now from value to compound, other results behind:

IC50 [3] [µM]	EC50 [4] [nM]	EC50 [5] [nM]	Compound	colonies of 3–5 large cells [1]	colonies of 6–12 large cells [1]	Response (AChE-positive megakaryocytes) ([2]; 1 nM)	megakaryocytes developed ([2]; One (X) nM rhuTPO, initial seeding 10^6 total marrow cells/ml (50 ml cultures), 7 days)	Response (AChE-positive megakaryocytes) ([2]; 1000 nM (putative 1:4 complex), maximal = 25–30% AChE staining cells)
≤ 200	< 200000	< 200000	CC[C@H](C)[C@@H]1NC(=O)[C@H](Cc2c[nH]c3ccccc23)NC(=O)[C@H](CCC(=O)O)NC(=O)[C@H](CCCNC(=N)N)NC(=O)[C@H](CC(C)C)NC(=O)[C@H]([C@@H](C)O)NC(=O)[C@@H]2CCCN2C(=O)CNC(=O)[C@H](CC(=O)O)NC(=O)[C@H](C)NC(=O)CC[C@@H](C(N)=O)NC(=O)[C@H](Cc2ccccc2)NC(=O)[C@H](CO)NC1=O (HELM PEPTIDE1{A.D.G.P.T.L.R.E.W.I.S.F.E.[am]}$PEPTIDE1,PEPTIDE1,1:R1-13:R3$$$V2.0)					
≤ 200	< 200000	< 200000	CC[C@H](C)[C@@H]1NC(=O)[C@H](Cc2c[nH]c3ccccc23)NC(=O)[C@H](CCC(=O)O)NC(=O)[C@H](CCCNC(=N)N)NC(=O)[C@H](CC(C)C)NC(=O)[C@H]([C@@H](C)O)NC(=O)[C@@H]2CCCN2C(=O)CNC(=O)[C@H](CC(=O)O)NC(=O)[C@H](C)NC(=O)C[S+]([O-])C[C@@H](C(N)=O)NC(=O)[C@H](Cc2ccccc2)NC(=O)[C@H](CO)NC1=O (some centres unmarked) (HELM PEPTIDE1{A.D.G.P.T.L.R.E.W.I.S.F.[O=C([C@H](C[S+]([O-])CC(=O)[*:3])N[*:1])[*:2]].[am]}$PEPTIDE1,PEPTIDE1,1:R1-13:R3$$$V2.0)					
≤ 200	< 200000	< 200000	CC[C@H](C)[C@@H]1NC(=O)[C@H](Cc2c[nH]c3ccccc23)NC(=O)[C@H](CCC(=O)O)NC(=O)[C@H](CCCNC(=N)N)NC(=O)[C@H](CC(C)C)NC(=O)[C@H]([C@@H](C)O)NC(=O)[C@@H]2CCCN2C(=O)CNC(=O)[C@H](CC(=O)O)NC(=O)[C@H](C)NC(=O)CSC(C)(C)[C@@H](C(N)=O)NC(=O)[C@H](Cc2ccccc2)NC(=O)[C@H](CO)NC1=O (HELM PEPTIDE1{[O=C(C[*:3])[*:2]].A.D.G.P.T.L.R.E.W.I.S.F.[Pen].[am]}$PEPTIDE1,PEPTIDE1,1:R3-14:R3$$$V2.0)					
